Literature values, collected in patent US20060178351A1, “Treatment of immune-mediated disorders with active vitamin D compounds alone or in combination with other therapeutic agents” (Novacea, Inc., priority 2003, published 2006).

Details: relative to an equal dose of calcitriol

Hypercalcemic effect compared to calcitriol: reduced hypercalcemic effect
SMILES: C=C1/C(=C\C=C2/CCC[C@]3(C)C([C@H](C)CC#CC(C)(C)O)=CC[C@@H]23)C[C@@H](O)C[C@@H]1O [Ro23-7553]
